Data on one molecule can be found in patent US11667629B2, “Isoxazole derivative, preparation method therefor, and use thereof” (SICHUAN KELUN-BIOTECH BIOPHARMACEUTICAL CO., LTD., priority 2017, dated 2023).

A short description of series [1]: Liver microsomal stability test, mouse. The settings on record: liver microsomes; mouse liver microsome, 1 μM compound, 0.5 mg/mL, NADPH. The class given is in vitro ADME. The method, then:
(§1) The test compound (50 μL) was mixed with the liver microsome (100 μL) of each species, after pre-incubation at 37° C. for 5 minutes, NADPH (50 μL) was added, and the incubation was performed for 0, 30, and 60 minutes. The incubation concentrations of the test compound, NADPH, and liver microsomal enzyme were 1 μM, 1 mM, and 0.5 mg/mL, respectively. Ice-cold acetonitrile (200 μL) was added to stop the reaction, and an appropriate volume of the internal standard was then added. After the vortex and centrifugation process, the supernatant was obtained and detected.
(§2) LC-MS/MS, wherein the mass spectrometer was API 5500, and the liquid chromatograph was Shimadzu LC-30AD system. The chromatographic column was Hypersil GOLD C18, 1.9 μm particle size, 50×2.1 mm; mobile phase A was water+0.1% formic acid, phase B was acetonitrile; flow rate was 0.55 mL/min, and column temperature was 40° C. The ion source was an ESI source positive ion mode, and the scanning mode is multiple reaction monitoring (MRM).
(§3) By determining the concentrations of the samples at different incubation time, the rate constant was obtained by plotting “Ln (amount of the remained drug %)” versus “incubation time”. The half-life and liver clearance rate of the drug were then calculated, and were used to evaluate the metabolic stability of the drug in liver microsome.
Background: Microsomes from liver hold many membrane-bound enzymes, among them those of drug oxidation.

Series [2] addresses T1, FXR (Homo sapiens, UniProt Q96RI1).
T1 construct: purchased Invitrogen
As to the kind of experiment: Bile acid receptor FXR coactivator binding assay (LanthaScreen TR-FRET). Type of series: biochemical. How it is done: The Invitrogen⋅LanthaScreen™ TR-FRET Farnesoid X Receptor Coactivator Assay kit was employed to determine the activation effect of the compounds on FXR.
After the receptor was incubated with the test compound at various concentrations at room temperature, the fluorescent-labeled coactivator short peptides and terbium-labeled antibody were added, and the FRET signal was detected after the reaction was complete at room temperature. The group without the receptor protein was employed as a blank, the activation effect (EC50) and maximum activation effect signal value (Emax) of the test compounds on FXR were calculated according to the four-parameter fitting equation: y=E min+(E max−E min)/(1+(x/EC50)^(−Hillslope))
(In general: TR-FRET usually uses a lanthanide donor and a delayed reading to cut background.)

Series [3] can be described thus: Liver microsomal stability test, rat. Type of series: in vitro ADME. The settings on record: liver microsomes; rat liver microsome, 1 μM compound, 0.5 mg/mL, NADPH. How it is done:
as §1, §2, §3

The nature of series [4]: Liver microsomal stability test, dog. The class given is in vitro ADME. The following applies: liver microsomes; dog liver microsome, 1 μM compound, 0.5 mg/mL, NADPH. How it is done: as §1, §2, §3
Series [5] has as its target T2, FXR (Homo sapiens, UniProt Q96RI1).
T2 construct: expressed in transfected cells; host or cells: HEK293
T2 sequence (Q96RI1 1-486): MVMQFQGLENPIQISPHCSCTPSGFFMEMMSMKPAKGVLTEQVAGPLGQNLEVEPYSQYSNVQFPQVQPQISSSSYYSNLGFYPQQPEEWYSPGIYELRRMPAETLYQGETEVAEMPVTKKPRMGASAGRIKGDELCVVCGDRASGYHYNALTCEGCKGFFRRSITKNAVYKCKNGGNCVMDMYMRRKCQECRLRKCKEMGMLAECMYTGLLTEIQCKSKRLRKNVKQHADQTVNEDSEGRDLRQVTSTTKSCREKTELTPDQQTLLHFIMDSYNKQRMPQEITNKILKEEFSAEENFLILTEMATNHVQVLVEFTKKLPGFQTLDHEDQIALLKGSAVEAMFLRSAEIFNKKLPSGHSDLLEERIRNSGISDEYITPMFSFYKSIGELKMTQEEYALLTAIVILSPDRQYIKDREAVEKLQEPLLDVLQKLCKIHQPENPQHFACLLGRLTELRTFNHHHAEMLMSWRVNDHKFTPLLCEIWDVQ
As to the kind of experiment: Luciferase reporter gene assay (HEK293 cotransfected with FXR and human BSEP luciferase reporter). The class given is cell-based. The method, then: Human embryonic kidney cells HEK293 were cultured in a DMEM medium containing 10% FBS. Plasmids were cotransfected to allow the cells to have over expression of FXR and human BSEP luciferase reporter genes. The transfected cells were digested, resuspended, counted, and plated in a multi-well plate. 10 μL of the test compound at various concentrations was added to the multi-well plate to result in final concentrations of 64 μM, 16 μM, 4 μM, 1 μM, 0.25 μM, 0.0625 μM, 0.0156 μM, 0.0039 μM, 0.000975 μM, 0.000244 μM, 0 μM, and the final concentration of DMSO was 0.5%. After the test compound was incubated with the cells for 18 hours, the Brigh-Glo™ detection reagent was added, and the chemical light unit value (RLU) was detected by a multifunctional automatic microplate reader. Taking the signal value of the blank well (without the test compound) as 100%, the relative signal percentage (%) at each concentration of the test compound was calculated. The SigmaPlot 10 software was employed to fit the EC50 and the maximum activation effect Emax (relative signal percentage) of the test compounds using a four-parameter model.

The nature of series [6]: Liver microsomal stability test, human. Type of series: in vitro ADME. How it is done: as §1, §2, §3

As usually defined, the CLint scaled is the rate of metabolic loss divided by the concentration. Low values mean greater metabolic stability, high ones faster metabolism. For orientation: half-life means the time in which the quantity being followed falls by half. Lower therefore signals fast loss. A word on the EC50: it is the concentration giving half of the maximal effect.

As to `O=C(O)c1ccc(-c2csc(N3[C@@H]4CC[C@H]3C[C@@H](OCc3c(-c5ccccc5OC(F)(F)F)noc3C3CC3)C4)n2)cc1C(F)(F)F` [Compound C46, 4-(2-((1R,3r,5S)-3-((5-cyclopropyl-3-(2-(trifluoromethoxy)phenyl)isoxazol-4-yl)methoxy)-8-azabicyclo[3.2.1]octan-8-yl)thiazol-4-yl)-2-(trifluoromethyl)benzoic acid], the CLint scaled at 1 μM in series [1] stood at 15.3 mL/min/kg; in series [3] it was 0.96 mL/min/kg; in series [4], 8.03 mL/min/kg. For the same molecule, the half-life at 1 μM in series [1] came to 2.5 h; in series [3] it was 16.1 h; in series [4], 4.32 h. Moreover, the EC50 came out at 2 ± 1 nM at FXR [2] (TR-FRET coactivator assay, four-parameter fit, read-out: EC50 of the compounds on FXR) and 14 ± 5 nM at FXR [5] (HEK293, 18 hours incubation). The Emax was 196% on FXR [2] (read-out: Relative activation effect) and 301% at FXR [5] (HEK293, maximum activation effect, relative signal percentage, blank well = 100%). In series [6], the “clearance rate in human liver microsome” value was 14.9 mL/min/kg.
